System: EL-4 lymphoma cells
Test: PDT of EL-4 lymphoma cells with TH9402 and light
Format: cell-based
Procedure: The strain of mice B6SJL was used for the evaluation of PDT to induce immuno-protection. In generation of tumor cell lysates, EL-4 cells (American Type Culture Collection, ATCC Accession # TIB-39) were seeded in flasks at 10^6 cells/ml and exposed to 10 μM TH9402 in serum free DMEM without phenol red medium for 40 minutes, followed by exposure to drug-free medium for 90 minutes, then illuminated with a dose of 10J/cm^2. Treated cells were incubated overnight. After incubation, cells and supernatants were collected and spun down. The resulting supernatant was collected, concentrated by vacuum speed using a molecular sieve (centriplus 3000 molecular weight cut-off), and stored frozen at −70° C. until use.

SMILES: Br.COC(=O)c1ccccc1-c1c2ccc(=N)c(Br)c-2oc2c(Br)c(N)ccc12 [TH9402, 2′-(6-amino-4,5-dibromo-3-imino-3H-xanthen-9-yl)-benzoic acid methyl ester hydrobromide]
- cell death of EL-4 lymphoma cells undergoing PDT: rapidly proceed to programmed cell death, apoptosis and/or necrosis

— patent publication US20070098732A1, “Immunologic compounds for prevention, protection, prophylaxis or treatment of immunological disorders, infections and cancer” (Universite De Montreal, priority 2003, published 2007)
